The subject of the assay is Streptococcus. As to the kind of experiment: Antimicrobial activity against group A streptococci assessed as percent resistant isolates by Etest. The class given is functional.

For `CC[C@H]1OC(=O)[C@H](C)[C@@H](O[C@H]2C[C@@](C)(OC)[C@@H](O)[C@H](C)O2)[C@H](C)[C@@H](O[C@@H]2O[C@H](C)C[C@H](N(C)C)[C@H]2O)[C@](C)(O)C[C@@H](C)C(=O)[C@H](C)[C@@H](O)[C@]1(C)O` [ERYTHROMYCIN], the Activity is listed as 25%. The value for `CN(C)[C@@H]1C(O)=C(C(N)=O)C(=O)[C@@]2(O)C(O)=C3C(=O)c4c(O)cccc4[C@@](C)(O)[C@H]3C[C@@H]12` [TETRACYCLINE] was 38%.

These data come from ChEMBL document CHEMBL1143848, “Tetracycline resistance in group a streptococci: emergence on a global scale and influence on multiple-drug resistance” (2007).
